Tests used:
Assay type in all cases: cell-based
[1] = tested on: MCF-7 cells; assay: Inhibition of cell proliferation of MCF-7 cells (CCK-8, 9 days); details: treated for 9 days, CCK-8 kit (Table 6)
Method in brief: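 Read-out was CCK-8 viability after 9-day continuous exposure (37°C, 5% CO2) of MCF-7 cells plated at 800/well in 10% FBS DMEM across several compound concentrations. Values are proliferation IC50s.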

[2] = biological target: T1, ERα (Homo sapiens, UniProt P03372); assay: Degradation of ERα in MCF-7 cells (immunoblotting, 4 h)
T1 sequence (P03372 1-595): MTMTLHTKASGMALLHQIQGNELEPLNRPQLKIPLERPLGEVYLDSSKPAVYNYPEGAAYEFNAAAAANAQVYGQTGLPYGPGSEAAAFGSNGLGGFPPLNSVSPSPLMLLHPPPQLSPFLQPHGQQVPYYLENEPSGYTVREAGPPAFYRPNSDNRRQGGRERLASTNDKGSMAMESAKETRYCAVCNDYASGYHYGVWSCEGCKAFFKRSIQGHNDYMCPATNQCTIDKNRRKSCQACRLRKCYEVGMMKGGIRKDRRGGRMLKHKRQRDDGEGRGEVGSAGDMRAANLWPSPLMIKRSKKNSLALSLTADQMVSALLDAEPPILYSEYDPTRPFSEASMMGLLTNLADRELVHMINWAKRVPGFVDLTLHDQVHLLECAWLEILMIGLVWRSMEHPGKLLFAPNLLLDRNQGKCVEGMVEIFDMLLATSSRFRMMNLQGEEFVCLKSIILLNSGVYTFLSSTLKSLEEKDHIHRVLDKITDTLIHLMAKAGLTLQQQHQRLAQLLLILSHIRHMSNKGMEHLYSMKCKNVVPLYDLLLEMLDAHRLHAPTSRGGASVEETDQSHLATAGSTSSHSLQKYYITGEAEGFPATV
Method in brief: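 Degradation rate reflects ERα band intensity, corrected to an internal reference protein, relative to control. Values come from Western blotting of lysates from MCF-7 cells exposed 4 h at 37°C to compounds at final concentrations of 0.15-1000nM.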

[3] = biological target: T1, ERα; assay: Degradation of ERα in T-47D cells (immunoblotting, 4 h); set-up: host or cells: T-47D
Method in brief: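 ERα protein levels were assessed by immunoblot of RIPA lysates (with protease inhibitor) after 4 h exposure at 37°C. Compound was added in DMSO to T-47D cells at final concentrations of 0.15-1000 nM.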

Row | SMILES | IC50 [1] [nM] | Degradation rate (%) of ERα in MCF-7 cells ([2]; 1nM compound) [%] | Degradation rate (%) of ERα in MCF-7 cells ([2]; 10nM compound) [%] | Degradation rate (%) of ERα in T-47D cells ([3]; 1nM compound) [%] | Degradation rate (%) of ERα in T-47D cells ([3]; 10nM compound) [%]
1 | CN(C)C(=O)[C@H]1CC(N2CCC3(CC2)COc2c3ccc3c2CN(C2CCC(=O)NC2=O)C3=O)CCN1C1CC2(CCN(c3ccc([C@@H]4c5ccc(O)cc5CC[C@@H]4c4ccccc4)cc3)CC2)C1 (stereo partly shown) [K32] | 0.779 | 66 | 88 | 67 | 90
2 | O=C1CCC(N2Cc3c(ccc4c3OCC43CCN(C(=O)C4CN(CC5CCN(c6ccc([C@@H]7c8ccc(O)cc8CC[C@@H]7c7ccccc7)cc6)CC5)C4)CC3)C2=O)C(=O)N1 (stereo partly shown) [K33] | 17.5 | 57 | 62 | 58 | 70
3 | O=C1CCC(N2Cc3c(ccc4c3OCC43CCN(C(=O)C4CCN(CC5CCN(c6ccc([C@@H]7c8ccc(O)cc8CC[C@@H]7c7ccccc7)cc6)CC5)CC4)CC3)C2=O)C(=O)N1 (stereo partly shown) [K34] | 10.5 | 75 | 76 | 76 | 86
4 | N#CC1(C(=O)N2CCC(N3CCC4(CC3)COc3c4ccc4c3CN(C3CCC(=O)NC3=O)C4=O)CC2)CCN(c2ccc([C@@H]3c4ccc(O)cc4CC[C@@H]3c3ccccc3)cc2)CC1 (stereo partly shown) [K35] | 32.8 | 46 | 64 | 60 | 72
5 | O=C1CCC(N2Cc3c(ccc4c3OCC43CCN(C(=O)C4CCN(C(=O)C5CCN(c6ccc([C@@H]7c8ccc(O)cc8CC[C@@H]7c7ccccc7)cc6)CC5)CC4)CC3)C2=O)C(=O)N1 (stereo partly shown) [K36] | 15.2 | 20 | 61 | 54 | 76
6 | CN(C(=O)CN1CCC2(CC1)COc1c2ccc2c1CN(C1CCC(=O)NC1=O)C2=O)C1CCN(c2ccc([C@@H]3c4ccc(O)cc4CC[C@@H]3c3ccccc3)cc2)CC1 (stereo partly shown) [K37] | 2510 | 20 | 23 | 48 | 56
7 | O=C1CCC(N2Cc3cc4c(cc3C2=O)OC2(CC4)CN(CC3CCN(C(=O)C4CCN(c5ccc([C@@H]6c7ccc(O)cc7CC[C@@H]6c6ccccc6)cc5)CC4)CC3)C2)C(=O)N1 (stereo partly shown) [K39] | 59 | 30 | 56 | 15 | 69
8 | O=C1CCC(N2Cc3cc4c(cc3C2=O)CCC2(CN(CC3CCN(C(=O)C5CCN(c6ccc([C@@H]7c8ccc(O)cc8CC[C@@H]7c7ccccc7)cc6)CC5)CC3)C2)O4)C(=O)N1 (stereo partly shown) [K40] | 2350 | 14 | 45 | 40 | 77
9 | O=C1CCC(N2Cc3c(ccc4c3OCC43CCN(C(=O)CN4CCN(C(=O)C5CCN(c6ccc([C@@H]7c8ccc(O)cc8CC[C@@H]7c7ccccc7)cc6)CC5)CC4)CC3)C2=O)C(=O)N1 (stereo partly shown) [K43] | 3070 | 23 | 69 | 66 | 84
10 | CN(C(=O)CN1CCC2(CC1)COc1c2ccc2c1C(=O)N(C1CCC(=O)NC1=O)C2=O)C1CCC2(CC1)CN(c1ccc([C@@H]3c4ccc(O)cc4CC[C@@H]3c3ccccc3)cc1)C2 (stereo partly shown) [K44] | 936 | 1 | 56 | 36 | 66
11 | CN(C(=O)CN1CC2(CCc3cc4c(cc3O2)CN(C2CCC(=O)NC2=O)C4=O)C1)C1CCC2(CC1)CN(c1ccc([C@@H]3c4ccc(O)cc4CC[C@@H]3c3ccccc3)cc1)C2 (stereo partly shown) [K45] | 75.2 | 21 | 59 | 37 | 74

— patent publication EP4656642A1, “ESTROGEN RECEPTOR PROTEOLYSIS TARGETING CHIMERA COMPOUND AND USE THEREOF” (GAN & LEE PHARM CO., LTD, priority 2023, dated 2024)
